From patent US5124083A, “3-substituted and 3,3-disubstituted 4-oxoretinoic acids and their esters” (Southern Research Institute, priority 1990, dated 1992)
Like-named read-outs stand apart in the source and are kept apart here.

How the values were obtained:
skin papillomas = experiment: Mouse antipapilloma assay (DMBA-TPA skin papillomas); assay type: in vivo; design: Average Number of Skin Papillomas/Mouse as % of No. of Papillomas/Mouse in the DMBA-TPA Control Group of Mice: concentration or dose not given beside the values; details: for Average Number of Skin Papillomas/Mouse as % of No. of Papillomas/Mouse in the DMBA-TPA Control Group of Mice: DMBA-initiated, TPA-promoted mouse skin; for Reduction of papilloma formation, summary range: range over the six most active retinoids; for Papilloma formation as % of papilloma formation in untreated control mice, summary range: summary of Table IV
Text: Application of the carcinogen DMBA to mouse skin followed by application of the tumor promoter TPA causes the formation of papillomas. Certain retinoids applied to the same area of mouse skin reduce or prevent papilloma formation (e.g. H. Mayer, W. Bollag, R. Hanni, and R. Ruegg, Experientia, Vol 34, pages 1105-1119, 1978; R. K. Boutwell and A. K. Verma, Pure and Applied Chemistry, Vol. 51, pages 857-866, 1979). The antipapilloma assay is a direct test of the capability of a retinoid to prevent tumor formation in vivo. It has been used to select retinoids for clinical development. The tested retinoids reduced papilloma formation to 27-83% of papilloma formation in untreated control mice. […] The number of papillomas in mice treated with either of these six retinoids was 27-40% of the number of papillomas on untreated mice; or, differently expressed, papilloma formation was reduced by 60-73%.
In this assay, tumors are initiated in mice by applying the carcinogen DMBA to the skin of mice and subsequently applying the promoter TPA. The method is that of Verma et al., Cancer Research, Vol. 39, pages 419-425, 1979.

[1] = system: F9 Embryonal Carcinoma Cells; experiment: Induction of differentiation of F9 embryonal carcinoma cells (plasminogen activator release); assay type: cell-based; details: Mus musculus, 96 h, by release of plasminogen activator, 4 days, read-out: Differentiation of F9 Embryonal Carcinoma Cells ED50
Description: Induction of differentiation of cancer cells is a potential mode of cancer chemoprevention. […] Elevated release of plasminogen activator by F9 cells in the presence of retinoids is a marker for differentiation. Induction of differentiation of F9 cells by several of the retinoids of this invention was evaluated, and the results are summarized in Table I (Example 24) as values of ED50. All of the tested 4-oxoretionoic acid analogues induce differentiation at low concentrations (ED50 =[…] -10^-10 molar) and, therefore, are very effective inducers of differentiation of mouse F9 embryonal carcinoma cells. […] Under the conditions of this assay, ester derivatives might be hydrolyzed partially to the carboxylic acids.
Assay for Induction of Differentiation of Cancer Cells to Normal Cells
Evaluation of the differentiation potential of 4-oxoretinoids was carried out with an embryonal carcinoma cell line, F9. Elevation of plasminogen activator release by F9 cells in the presence of retinoids is a marker for inducing differentiation into parietal endoderm (Strickland and Mahdavi, loc. cit.; Strickland and Sawey, loc. cit.). F9 cells were grown at a density of 1×10^5 cells/mL in the presence or absence of […], 10^-8, 10^-9, 10^-10, and 10^-11 or molar retinoids for 4 days. Aliquots (20 μL) of the harvest fluid were mixed with 0.13 μM plasminogen, 0.3 mM H-D-Val-Leu-Lys-p-nitroaniline (a synthetic substrate of plasmin), 0.1% Tween 80, and 25 μg of fibrinogen fragments in a final volume of 0.2 mL of Tris-HCl, pH 7.5. After incubation for 4 hours at 25° C., the generation of p-nitroaniline was measured by absorbance at 405 nm. The average absorbencies from duplicate experiments were plotted (semilog plots) versus concentration (molarity). The ED50 values were determined by finding the midpoint between the maximal and minimal absorbance values.
Induction of Differentiation of Cancer Cells
^a ED50 is the molar concentration of the retinoid that causes
50% induction of differentiation of the carcinoma cells as measured by th
release of plasminogen activator.

ornithine decarboxylase = experiment: Ornithine decarboxylase assay (reduction of TPA-induced ODC activity in mouse skin); assay type: in vivo; details: for Ornithine Decarboxylase Activity, Average % of Control Group: TPA-induced ODC, mouse skin, nanomoles of carbon dioxide per milligram of protein per half hour; for ODC activity as % of the ODC activity in the control mice, summary range: TPA-induced, summary of Table III in text
Text: A bioassay in vivo for activity in the prevention of carcinogen-induced cancer is based on the reduction by a retinoid of the amount of ornithine decarboxylase (ODC) induced in mouse skin by the tumor promoter 12-O-tetradecanoylphorbol 13-acetate (TPA). Verma et al. (Cancer Research, Vol. 38, pages 793-801, 1978), reported that "application of the potent tumor-promoting agent 12-O-tetradecanoylphorbol 13-acetate (TPA) to mouse skin leads to a rapid and transient induction of epidermal ornithine decarboxylase activity". They state, further, that "inhibition of this enzyme activity by retinoids may be a simple and rapid in vivo test for assessing the potential prophylactic activity of new synthetic retinoids". All of the tested 4-oxoretinoid analogues reduced TPA-induced ODC activity. The compounds of Examples 2-4, 8, 11, 17, 18, and 20-23 reduced ODC activity to 22-47% of the ODC activity in the control mice and are, therefore, very active in this assay for cancer chemopreventive activity.
Ornithine Decarboxylase Assay
Assays for the reduction by 4-oxoretinoids of ornithine decarboxylase activity induced by 12-O-tetradecanoylphorbol 13-acetate (TPA) were performed by the procedure of Verma et al., Cancer Research, Vol. 38, pages 793-801 (1978).

[2] = system: tracheas obtained from vitamin A-deficient hamsters; experiment: Hamster trachea organ culture assay (reversal of squamous metaplasia and keratinization); assay type: cell-based; details: for EC50: Mesocricetus auratus, reversal of keratinization, vitamin A-deficient hamster trachea in culture, read-out: ED50, hamster trachea organ culture assay
Description: Some of these 4-oxoretinoic acid analogues were evaluated in the hamster-trachea organ-culture assay described in Clamon et al., Nature, Vol. 250, pages 64-66, 1974; Sporn et al., Nature, Vol. 263, pages 110-113, 1976; and Newton et al., Cancer Res., Vol. 40, pages 3413-3425, 1980. This bioassay is specific for retinoids and assesses the capacity of retinoids to reverse keratinization in vitamin A-deficient hamster trachea in culture. Therefore, it is a measure of the capacity of a retinoid to control differentiation of epithelial cells, and "it is believed to have significant predictive value for the potential use of a new retinoid for prevention of epithelial cancer" (Newton et al., Cancer Res., Vol. 40, pages 3413-3425, 1980). (See Example 25). Also, data obtained by Newton et al., (Cancer Res., Vol. 40, pages 3413-3425, 1980) in assays of six all-trans or 13-cis retinamides are included in Table II for comparison.
Hamster Trachea Organ Culture Assay
4-Oxoretinoids were evaluated for their capacity to reverse squamous metaplasia and keratinization in organ cultures of tracheas obtained from vitamin A-deficient hamsters. The methods and procedures were those described by Sporn and co-workers (Clamon et al. and Newton et al., loc. cit.).

[3] = molar concentration causing 50% induction of differentiation

| SMILES | Average Number of Skin Papillomas/Mouse as % of No. of Papillomas/Mouse in the DMBA-TPA Control Group of Mice (skin papillomas) | Reduction of papilloma formation, summary range (skin papillomas) | Papilloma formation as % of papilloma formation in untreated control mice, summary range (skin papillomas) | EC50 [1, 3] | Ornithine Decarboxylase Activity, Average % of Control Group (ornithine decarboxylase) | EC50 [2] | ODC activity as % of the ODC activity in the control mice, summary range (ornithine decarboxylase) | Activity in hamster-trachea assay compared with the retinamides of Table II ([2]; compared with retinamides in lower part of Table II) | EC50 ([1]; average of two determinations, 50% induction of differentiation) |
| --- | --- | --- | --- | --- | --- | --- | --- | --- | --- |
| COC(=O)/C=C(C)/C=C/C=C(C)/C=C/C1=C(C)C(=O)C(C)CC1(C)C (stereo not drawn) [Example 2, Methyl 3-Methyl-4-oxoretinoate] | 27% | 60-73% | 27-40% | 2 nM | 33 % of Control Group | 4 nM | – | – | – |
| COC(=O)/C=C(C)/C=C/C=C(C)/C=C/C1=C(C)C(=O)C(CC=Cc2ccccc2)CC1(C)C (stereo not drawn) [Example 3, Methyl 3-Cinnamyl-4-oxoretinoate] | – | – | – | – | 31 % of Control Group | – | – | – | – |
| CCC1CC(C)(C)C(/C=C/C(C)=C/C=C/C(C)=C/C(=O)OC)=C(C)C1=O (stereo not drawn) [Example 4, Methyl 3-Ethyl-4-oxoretinoate] | 83% | – | – | – | 31 % of Control Group | – | – | – | – |
| C=CCC1CC(C)(C)C(/C=C/C(C)=C/C=C/C(C)=C/C(=O)OC)=C(C)C1=O (stereo not drawn) [Example 7, Methyl 4-Oxo-3-(2-propenyl)retinoate] | 42% | – | – | – | 56 % of Control Group | – | – | – | – |
| C#CCC1CC(C)(C)C(/C=C/C(C)=C/C=C/C(C)=C/C(=O)OC)=C(C)C1=O (stereo not drawn) [Example 8, Methyl 4-Oxo-3-(2-propynyl)retinoate] | 40% | 60-73% | 27-40% | 1.5 nM | 35 % of Control Group | – | 22-47 % of the ODC activity in the control mice | – | – |
| COC(=O)/C=C(C)/C=C/C=C(C)/C=C/C1=C(C)C(=O)C(Cc2ccccc2)CC1(C)C (stereo not drawn) [Example 9, Methyl 4-Oxo-3-(phenylmethyl)retinoate] | – | – | – | – | 77 % of Control Group | 11 nM | – | – | – |
| COC(=O)/C=C(C)/C=C/C=C(C)/C=C/C1=C(C)C(=O)C(C)(C)CC1(C)C [Example 11, Methyl 3,3-Dimethyl-4-oxoretinoate] | 27% | 60-73% | 27-40% | 0.9 nM | 22 % of Control Group | 0.3 nM | 22-47 % of the ODC activity in the control mice | comparable | – |
| CC1=C(/C=C/C(C)=C/C=C/C(C)=C/C(=O)O)C(C)(C)CC(C)C1=O (stereo not drawn) [Example 17, 3-Methyl-4-oxoretinoic Acid] | 32% | 60-73% | 27-40% | 0.9 nM | 33 % of Control Group | 2 nM | 22-47 % of the ODC activity in the control mice | – | – |
| CCC1CC(C)(C)C(/C=C/C(C)=C/C=C/C(C)=C/C(=O)O)=C(C)C1=O (stereo not drawn) [Example 18, 3-Ethyl-4Oxoretionoic Acid] | 57% | – | – | 5 nM | 40 % of Control Group | – | 22-47 % of the ODC activity in the control mice | – | – |
| C=CCC1CC(C)(C)C(/C=C/C(C)=C/C=C/C(C)=C/C(=O)O)=C(C)C1=O (stereo not drawn) [Example 19, 4-Oxo-3-(2-propenyl)retinoic Acid] | 47% | – | – | 0.7 nM | 68 % of Control Group | – | – | – | – |
| CC1=C(/C=C/C(C)=C/C=C/C(C)=C/C(=O)O)C(C)(C)CC(Cc2ccccc2)C1=O (stereo not drawn) [Example 21] | – | – | – | 0.8 nM | 42 % of Control Group | 11 nM | – | – | – |
| CC1=C(/C=C/C(C)=C/C=C/C(C)=C/C(=O)O)C(C)(C)CC(CC=Cc2ccccc2)C1=O (stereo not drawn) [Example 22, 3-Cinnamyl-4-oxoretinoic Acid] | 39% | 60-73% | 27-40% | 3.5 nM | 23 % of Control Group | – | – | – | – |
| CC1=C(/C=C/C(C)=C/C=C/C(C)=C/C(=O)O)C(C)(C)CC(C)(C)C1=O [Example 23, 3.3-Dimethyl-4-Oxoretinoic Acid] | 27% | 60-73% | 27-40% | – | 26 % of Control Group | – | – | – | 0.23 nM |
